Key:
[1] = In vitro inhibitory activity was evaluated against FIIa serine protease
Coagulation factor X = Coagulation factor X (Homo sapiens, UniProt P00742); assay: In vitro inhibitory activity was evaluated against Coagulation factor X
Serine protease 1 = Serine protease 1 (Homo sapiens, UniProt P07477); assay: In vitro inhibitory activity was evaluated against human trypsin
Plasminogen [2] = molecular target: T1, Plasminogen (Rattus norvegicus, UniProt Q01177); assay: In vitro inhibitory activity was evaluated against thrombolytic enzyme plasmin
Plasminogen [3] = molecular target: T1, Plasminogen; assay: In vitro inhibitory activity was evaluated against thrombolytic enzyme plasmin; Inactive

Coagulation factor X, sequence (P00742 41-179 limits assumed): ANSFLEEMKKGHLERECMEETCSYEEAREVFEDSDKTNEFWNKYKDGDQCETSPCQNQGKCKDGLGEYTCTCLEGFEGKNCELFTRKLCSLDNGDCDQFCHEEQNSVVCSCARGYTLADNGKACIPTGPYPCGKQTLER
Coagulation factor X, sequence (P00742 235-488 limits assumed): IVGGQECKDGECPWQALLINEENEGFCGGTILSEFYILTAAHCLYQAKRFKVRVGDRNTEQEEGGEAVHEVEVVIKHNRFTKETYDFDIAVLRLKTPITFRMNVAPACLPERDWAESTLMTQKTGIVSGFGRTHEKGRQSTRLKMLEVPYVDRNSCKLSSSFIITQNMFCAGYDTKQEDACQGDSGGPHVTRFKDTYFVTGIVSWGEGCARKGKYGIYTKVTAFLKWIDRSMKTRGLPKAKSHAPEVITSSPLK
T1 sequence (Q01177 97-581 limits assumed): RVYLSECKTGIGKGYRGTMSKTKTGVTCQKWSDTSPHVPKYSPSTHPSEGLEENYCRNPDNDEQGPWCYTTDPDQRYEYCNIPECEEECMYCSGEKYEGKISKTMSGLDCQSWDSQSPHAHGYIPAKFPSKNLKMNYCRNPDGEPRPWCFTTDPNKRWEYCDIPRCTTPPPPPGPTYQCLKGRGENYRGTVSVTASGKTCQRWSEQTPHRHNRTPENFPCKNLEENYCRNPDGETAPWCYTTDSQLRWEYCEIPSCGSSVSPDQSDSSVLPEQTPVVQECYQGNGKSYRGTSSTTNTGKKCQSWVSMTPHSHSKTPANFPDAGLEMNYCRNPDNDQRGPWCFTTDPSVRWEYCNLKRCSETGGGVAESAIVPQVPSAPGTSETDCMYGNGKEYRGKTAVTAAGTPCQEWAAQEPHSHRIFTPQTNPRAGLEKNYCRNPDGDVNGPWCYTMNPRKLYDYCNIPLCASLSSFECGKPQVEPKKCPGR
T1 sequence (Q01177 582-812 limits assumed): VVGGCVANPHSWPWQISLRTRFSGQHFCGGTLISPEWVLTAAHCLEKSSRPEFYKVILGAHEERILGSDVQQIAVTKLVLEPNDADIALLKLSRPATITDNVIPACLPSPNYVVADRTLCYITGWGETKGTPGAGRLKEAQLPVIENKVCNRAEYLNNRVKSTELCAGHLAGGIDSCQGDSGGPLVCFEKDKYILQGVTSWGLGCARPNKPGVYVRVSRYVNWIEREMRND
Serine protease 1, sequence (P07477 whole entry): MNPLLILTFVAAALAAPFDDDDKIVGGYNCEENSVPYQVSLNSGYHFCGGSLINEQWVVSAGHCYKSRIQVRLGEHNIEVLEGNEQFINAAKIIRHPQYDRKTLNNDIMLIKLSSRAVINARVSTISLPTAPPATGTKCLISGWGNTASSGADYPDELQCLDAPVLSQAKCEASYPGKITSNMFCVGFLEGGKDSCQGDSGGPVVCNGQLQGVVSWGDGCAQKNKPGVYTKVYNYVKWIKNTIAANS

| SMILES | IC50 [1] | IC50 (Coagulation factor X) | IC50 (Serine protease 1) | IC50 (Plasminogen [2]) | IC50 (Plasminogen [3]) |
| --- | --- | --- | --- | --- | --- |
| CCCCCCCCCCOC(=O)c1ccccc1CS(=O)(=O)N[C@H]1CCCCN(CC(=O)N[C@H]2CCCN(C(=N)N)C2O)C1=O (stereo not given in full) | 7.03 nM | > 2500 nM | 143 nM | > 2500 nM | – |
| N=C(N)N1CCC[C@H](NC(=O)CN2CCCC[C@H](NS(=O)(=O)Cc3ccccc3C(=O)O)C2=O)C1O (stereo not given in full) | 39.1 nM | > 2500 nM | 247 nM | > 2500 nM | – |
| CCCOC(=O)c1ccccc1CS(=O)(=O)N[C@H]1CCCCN(CC(=O)N[C@H]2CCCN(C(=N)N)C2O)C1=O (stereo not given in full) | 0.96 nM | 451 nM | 79.8 nM | > 2500 nM | – |
| N=C(N)N1CCC[C@H](NC(=O)CN2CCCC[C@H](NS(=O)(=O)Cc3ccccc3C(=O)OCC3CCCCC3)C2=O)C1O (stereo not given in full) | 0.56 nM | 627 nM | 135 nM | 1760 nM | – |
| COC(=O)c1ccccc1CS(=O)(=O)N[C@H]1CCCCN(CC(=O)N[C@H]2CCCN(C(=N)N)C2O)C1=O (stereo not given in full) | 0.75 nM | 333 nM | 118 nM | > 2500 nM | – |
| N=C(N)N1CCC[C@H](NC(=O)CN2CCCC[C@H](N3C(=O)c4ccccc4CS3(=O)=O)C2=O)C1O (stereo not given in full) | 244 nM | > 2500 nM | 2500 nM | > 2500 nM | – |
| CC(C)OC(=O)c1ccccc1CS(=O)(=O)N[C@H]1CCCCN(CC(=O)N[C@H]2CCCN(C(=N)N)C2O)C1=O (stereo not given in full) | 0.94 nM | 369 nM | 41.3 nM | > 2500 nM | – |
| N=C(N)N1CCC[C@H](NC(=O)CN2CCC[C@H](NS(=O)(=O)Cc3ccccc3)C2=O)C1O (stereo not given in full) | 6.2 nM | > 2500 nM | – | – | Not Active |
| N=C(N)N1CCC[C@H](NC(=O)CN2CCCC[C@H](NS(=O)(=O)Cc3ccccc3)C2=O)C1O (stereo not given in full) | 0.7 nM | 39.6 nM | 101 nM | > 2500 nM | – |
